Results from US6143724A, “2-fluorofucosyl-N-aroylglucosamine derivatives, intermediates, therefor, and processes for producing these” (Daikin Industries, Ltd., priority 1997, dated 2000).
“Also recorded” adds a separate entry of the source.

How the values were obtained:
α-fucosidase = experiment: Evaluation of metabolic stability of sialyl Lewis X derivatives to α-fucosidase (TLC spot densitometry); assay type: in vitro ADME; conditions: for Spot Area: 28° C.
Description: The metabolic stability of various sialyl Lewis X derivatives to α-fucosidase was assayed. The various sialyl Lewis X derivatives which were used in Example [(2F-Fuc-t-Bu) SLcXOSE], Comparative Example 1 (SLeX Ganglioside), and Comparative Example 2 [(2F-Fuc) SLeX Ganglioside] are shown in the following structural formulas. Herein, the compound used in the present Example is the compound represented by said structural formula (β) obtained in said Example 11. [drawing 48] After […] of each sialyl Lewis X derivative was dissolved in 0.1 mL of dist. water, 0.1 mL of ammonium sulfate suspension of α-fucosidase (made by Wako Chemicals: 2 units or more/mg protein) was added to this solution at 28° C., then the reaction solution was charged on a silica gel TLC plate 5715 (made by Merck Company) at every reaction time course. After developing up to 2 cm using developing solvents (n-butanol:acetic acid:water=8:5:4), this was soaked in an aqueous solution of molybdenum phosphate/phosphoric acid/sulfuric acid mixture, and heated to color. The Rf values (moving ratio) on the TLC plate of products decomposed by α-fucosidase and each sialyl Lewis X derivative (substrate) were as follows.
Further, it was confirmed from the mass spectrum that each sialyl Lewis X derivative is decomposed by α-fucosidase, and the corresponding derivatives from which the fucose moiety was removed were produced as respective decomposed products. Further, as shown in following Table 1, the residual rates of the individual sialyl Lewis X derivatives were calculated from each spot area (hereinafter, sometimes referred to merely as the area) after each reaction time course as follows. Herein, each area was measured using a densitometer (software: VILBER LOURMAT BIOID V 6.31a): Residual rate of sialyl Lewis X derivative=(substrate area)/(total area of substrate area plus decomposed product area).

selectins = conditions: cited from earlier work
[1] = system: acute inflammation of the lung induced by cobra toxin; conditions: rats, Mulligan et al., Nature 364, 149 (1993); cited from earlier work
P selectin = target: T1, P selectin (Homo sapiens, UniProt P16109); conditions: H. Kondo et al., J. Med. Chem. 39, 1339 (1996); cited from earlier work
T1 sequence (P16109 42-830): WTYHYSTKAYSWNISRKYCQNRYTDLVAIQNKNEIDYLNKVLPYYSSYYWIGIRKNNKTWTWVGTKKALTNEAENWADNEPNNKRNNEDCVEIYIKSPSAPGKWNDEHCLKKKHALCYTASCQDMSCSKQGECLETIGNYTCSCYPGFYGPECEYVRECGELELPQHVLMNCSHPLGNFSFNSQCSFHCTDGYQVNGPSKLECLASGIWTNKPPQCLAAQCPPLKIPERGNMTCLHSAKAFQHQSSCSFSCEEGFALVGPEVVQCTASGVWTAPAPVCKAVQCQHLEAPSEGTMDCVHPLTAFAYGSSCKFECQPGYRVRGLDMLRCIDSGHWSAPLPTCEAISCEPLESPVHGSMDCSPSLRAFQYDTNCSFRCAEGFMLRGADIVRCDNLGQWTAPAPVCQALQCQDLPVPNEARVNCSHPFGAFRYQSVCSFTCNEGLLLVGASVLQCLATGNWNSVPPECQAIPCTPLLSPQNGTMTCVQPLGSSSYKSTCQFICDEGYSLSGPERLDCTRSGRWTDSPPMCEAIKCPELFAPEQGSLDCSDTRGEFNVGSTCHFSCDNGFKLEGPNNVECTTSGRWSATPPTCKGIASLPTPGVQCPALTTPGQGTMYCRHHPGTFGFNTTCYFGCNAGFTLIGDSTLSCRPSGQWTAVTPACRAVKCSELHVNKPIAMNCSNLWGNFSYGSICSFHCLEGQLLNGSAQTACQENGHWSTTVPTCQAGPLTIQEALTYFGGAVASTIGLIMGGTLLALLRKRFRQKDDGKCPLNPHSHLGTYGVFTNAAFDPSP

[2] = time course 0 min after addition of α-fucosidase
[3] = time course 0.5 min after addition of α-fucosidase, * = color on the TLC completely disappeared
[4] = time course 1.0 min after addition of α-fucosidase

CCCCCCCCCCCCC/C=C/[C@@H](O)[C@H](CO[C@@H]1O[C@H](CO)[C@@H](O[C@@H]2O[C@H](CO)[C@H](O)[C@H](O[C@@H]3O[C@H](CO)[C@@H](O[C@@H]4O[C@H](CO)[C@H](O)[C@H](O[C@]5(C(=O)O)C[C@H](O)[C@@H](NC(C)=O)[C@H]([C@H](O)[C@H](O)CO)O5)[C@H]4O)[C@H](O[C@@H]4O[C@@H](C)[C@@H](O)[C@@H](O)[C@@H]4O)[C@H]3NC(C)=O)[C@H]2O)[C@H](O)[C@H]1O)NC(=O)CCCCCCCCCCCCCCCCC [Comparative Example 1]
stability against / resistance to decomposition by α-fucosidase (in words, from FIG. 1) (α-fucosidase): rapid decomposition
Spot Area (α-fucosidase; [2]): 1.0 cm^2
Spot Area (α-fucosidase; [3]): 0.0 cm^2

CCCCCCCCCCCCC/C=C/[C@@H](O)[C@H](CO[C@@H]1O[C@H](CO)[C@@H](O[C@@H]2O[C@H](CO)[C@H](O)[C@H](O[C@@H]3O[C@H](CO)[C@@H](O[C@@H]4O[C@H](CO)[C@H](O)[C@H](O[C@]5(C(=O)O)C[C@H](O)[C@@H](NC(C)=O)[C@H]([C@H](O)[C@H](O)CO)O5)[C@H]4O)[C@H](O[C@@H]4O[C@@H](C)[C@@H](O)[C@@H](O)[C@@H]4F)[C@H]3NC(C)=O)[C@H]2O)[C@H](O)[C@H]1O)NC(=O)CCCCCCCCCCCCCCCCCCCCCCC [Comparative Example 2]
stability against / resistance to decomposition by α-fucosidase (in words, from FIG. 1) (α-fucosidase): weak resistance to decomposition
Spot Area (α-fucosidase; [2]): 1.0 cm^2
Spot Area (α-fucosidase; [3]): 0.36 cm^2
Spot Area (α-fucosidase; [4]): 0.30 cm^2

CC(=O)NC1C(O)CC(OC2C(O)C(CO)OC(OC3C(CO)OC(OC4C(O)C(CO)OC(OC5C(CO)OC(OCC[Si](C)(C)C)C(O)C5O)C4O)C(NC(=O)c4ccc(C(C)(C)C)cc4)C3OC3OC(C)C(O)C(O)C3F)C2O)(C(=O)O)OC1C(O)C(O)CO [Example, 2-(trimethylsilyl)ethyl O-(5-acetamide-3,5-dideoxy-D-glycero-α-D-galacto-2-nunolopyranosylonic acid)-(2→3)-O-β-D-galactopyranosyl-(1→4)-O-[(2-deoxy-2-fluoro-α-L-fucopyranosyl)-(1→3)]-O-[(2-deoxy-2-(4-t-butylbenzamide)-β-D-glucopyranosyl)]-(1→3)-(O-β-D-galactopyranosyl)-(1→4)-β-D-glucopyranoside]
stability against / resistance to decomposition by α-fucosidase (in words, from FIG. 1) (α-fucosidase): excellent in stability against α-fucosidase; also recorded: strongly resistant to decomposition reaction
Spot Area (α-fucosidase; [2]): 1.0 cm^2
Spot Area (α-fucosidase; [4]): 0.73 cm^2
Spot Area (α-fucosidase; time course 2.0 min after addition of α-fucosidase): 0.44 cm^2

CCCCCCCCCCCCCCC(CCCCCCCCCCCCCC)CO[C@@H]1O[C@H](CO)[C@@H](O[C@@H]2O[C@H](CO)[C@H](O)[C@H](OS(=O)(=O)O)[C@H]2O)[C@H](O[C@@H]2O[C@@H](C)[C@@H](O)[C@@H](O)[C@@H]2O)[C@H]1NC(C)=O [GSC-150]
selectin adhesion-inhibitory activity (in words) (selectins): powerful selectin blocker

CC(=O)NC1C(O)CC(OC2C(O)C(CO)OC(OC3C(CO)OC(O)C(NC(C)=O)C3OC3OC(C)C(O)C(O)C3O)C2O)(C(=O)O)OC1C(O)C(O)CO (centres unmarked) [structural formula (III)]
acute inflammation of the lung [1]: reduced

CC(=O)NC1COC(CO)C(OC2OC(CO)C(O)C(OC3(C(=O)O)CC(O)C(NC(C)=O)C(C(O)C(O)CO)O3)C2O)C1OC1OC(C)C(O)C(O)C1O (centres unmarked) [structural formula (V)]
adhesion-inhibitory activity to P selectin relative to the sialyl Lewis X glycoside of Structural Formula (III) (P selectin): 20 times
